Source: PubChem BioAssay AID1963969 (Molecular Pharmacology Branch, DTP, NCI, 2024)
Where “and” joins values, the source holds several entries; their conditions need not be identical. Identical values can stand only once.

Tested on: 817829-284-R-J1-PDC multi-cell spheroid viability
Test: Anticancer human tumor 817829-284-R-J1-PDC patient-derived colon adenocarcinoma cell line growth inhibition [PI3K]
Details: for viability, T/C: stronger effect = lower value
Method in brief: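 Combination activity was assessed by viability in multicellular tumor spheroids carrying HUVEC and MSC components. Agents were tested with PI3K inhibitors from a Cmax-based top dose (or 10 microM) downward in half-log increments.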

[1] = curve of first compound, second compound 0.00316 µM
[2] = curve of first compound, second compound 0.01 µM
[3] = curve of first compound, second compound 0.0316 µM
[4] = curve of first compound, second compound 0.1 µM
[5] = curve of first compound, second compound 0.316 µM
[6] = curve of first compound, second compound 1 µM
[7] = second compound 0.00316 µM, first compound 0.0316 µM
[8] = second compound 0.00316 µM, first compound 0.1 µM
[9] = second compound 0.00316 µM, first compound 0.316 µM
[10] = second compound 0.00316 µM, first compound 1 µM
[11] = second compound 0.00316 µM, first compound 3.16 µM
[12] = second compound 0.00316 µM, first compound 10 µM
[13] = second compound 0.01 µM, first compound 0.0316 µM
[14] = second compound 0.01 µM, first compound 0.1 µM
[15] = second compound 0.01 µM, first compound 0.316 µM
[16] = second compound 0.01 µM, first compound 1 µM
[17] = second compound 0.01 µM, first compound 3.16 µM
[18] = second compound 0.01 µM, first compound 10 µM
[19] = second compound 0.0316 µM, first compound 0.0316 µM
[20] = second compound 0.0316 µM, first compound 0.1 µM
[21] = second compound 0.0316 µM, first compound 0.316 µM
[22] = second compound 0.0316 µM, first compound 1 µM
[23] = second compound 0.0316 µM, first compound 3.16 µM
[24] = second compound 0.0316 µM, first compound 10 µM
[25] = second compound 0.1 µM, first compound 0.0316 µM
[26] = second compound 0.1 µM, first compound 0.1 µM
[27] = second compound 0.1 µM, first compound 0.316 µM
[28] = second compound 0.1 µM, first compound 1 µM
[29] = second compound 0.1 µM, first compound 3.16 µM
[30] = second compound 0.1 µM, first compound 10 µM
[31] = second compound 0.316 µM, first compound 0.0316 µM
[32] = second compound 0.316 µM, first compound 0.1 µM
[33] = second compound 0.316 µM, first compound 0.316 µM
[34] = second compound 0.316 µM, first compound 1 µM
[35] = second compound 0.316 µM, first compound 3.16 µM
[36] = second compound 0.316 µM, first compound 10 µM
[37] = second compound 1 µM, first compound 0.0316 µM
[38] = second compound 1 µM, first compound 0.1 µM
[39] = second compound 1 µM, first compound 0.316 µM
[40] = second compound 1 µM, first compound 1 µM
[41] = second compound 1 µM, first compound 3.16 µM
[42] = second compound 1 µM, first compound 10 µM
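Also: spheroids exposed to agents for seven days before readout.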
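For viability, T/C in this document: percent of vehicle DMSO control viability which is 100%.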

CC1(C)CCC(CN2CCN(c3ccc(C(=O)NS(=O)(=O)c4ccc(NCC5CCOCC5)c([N+](=O)[O-])c4)c(Oc4cnc5[nH]ccc5c4)c3)CC2)=C(c2ccc(Cl)cc2)C1 + COc1c(OCCCN2CCOCC2)ccc2c3n(c(=NC(=O)c4cnc(N)nc4)nc12)CCN3
IC50 [1]: > 10 µM
IC50 [2]: > 10 µM
IC50 [3]: > 10 µM
IC50 [4]: < 0.0316 µM
IC50 [5]: < 0.0316 µM
IC50 [6]: < 0.0316 µM
viability, T/C [7]: 59.2%
viability, T/C [8]: 90.8%
viability, T/C [9]: 91.6%
viability, T/C [10]: 81.9%
viability, T/C [11]: 93.3%
viability, T/C [12]: 113%
viability, T/C [13]: 80.5%
viability, T/C [14]: 74.1%
viability, T/C [15]: 75.3%
viability, T/C [16]: 64.3%
viability, T/C [17]: 66.2%
viability, T/C [18]: 69.2%
viability, T/C [19]: 52.7%
viability, T/C [20]: 63.2%
viability, T/C [21]: 72.7%
viability, T/C [22]: 60.1%
viability, T/C [23]: 63%
viability, T/C [24]: 44.5%
viability, T/C [25]: 31.8%
viability, T/C [26]: 31.6%
viability, T/C [27]: 49.6%
viability, T/C [28]: 33.3%
viability, T/C [29]: 45.3%
viability, T/C [30]: 40.1%
viability, T/C [31]: 18.5%
viability, T/C [32]: 20.7%
viability, T/C [33]: 23.2%
viability, T/C [34]: 22.8%
viability, T/C [35]: 24.7%
viability, T/C [36]: 19.7%
viability, T/C [37]: 12.9%
viability, T/C [38]: 11.1%
viability, T/C [39]: 13.6%
viability, T/C [40]: 14.4%
viability, T/C [41]: 13.4%
viability, T/C [42]: 11.7%

C=CC(=O)N1CCN(c2nc(=O)n(-c3c(C)ccnc3C(C)C)c3nc(-c4c(O)cccc4F)c(F)cc23)C(C)C1 (stereo not drawn)
viability, T/C (compound 0.0316 µM): 90.5% and 112%
viability, T/C (compound 0.1 µM): 107% and 70.5%
viability, T/C (compound 0.316 µM): 70.2% and 97.6%
viability, T/C (compound 1 µM): 104% and 120%
viability, T/C (compound 3.16 µM): 85.3% and 104%
viability, T/C (compound 10 µM): 44.3% and 48.8%
IC50 (curve of compound): 8.66 µM and 9.74 µM

Cn1ncc(Cl)c1-c1cc(C(=O)NC(CN)Cc2cccc(F)c2)sc1Cl (stereo not drawn) + CC(Nc1ccc2c(c1)OCCn1cc(N3C(=O)OCC3C(F)F)nc1-2)C(N)=O
IC50 [1]: < 0.0316 µM
IC50 [2]: 0.106 µM
IC50 [3]: < 0.0316 µM
IC50 [4]: 0.0416 µM
IC50 [5]: < 0.0316 µM
IC50 [6]: < 0.0316 µM
viability, T/C [7]: 73.2%
viability, T/C [8]: 38.6%
viability, T/C [9]: 22.8%
viability, T/C [10]: 16.9%
viability, T/C [11]: 16.3%
viability, T/C [12]: 98.6%
viability, T/C [13]: 81.4%
viability, T/C [14]: 51%
viability, T/C [15]: 22%
viability, T/C [16]: 19.1%
viability, T/C [17]: 14.4%
viability, T/C [18]: 69%
viability, T/C [19]: 49.4%
viability, T/C [20]: 30.6%
viability, T/C [21]: 14.9%
viability, T/C [22]: 16.5%
viability, T/C [23]: 14.7%
viability, T/C [24]: 55.9%
viability, T/C [25]: 56.3%
viability, T/C [26]: 31.4%
viability, T/C [27]: 21%
viability, T/C [28]: 16.7%
viability, T/C [29]: 14%
viability, T/C [30]: 53.2%
viability, T/C [31]: 46.4%
viability, T/C [32]: 33.7%
viability, T/C [33]: 16.8%
viability, T/C [34]: 13.2%
viability, T/C [35]: 11.9%
viability, T/C [36]: 44.7%
viability, T/C [37]: 34.4%
viability, T/C [38]: 25.6%
viability, T/C [39]: 16.7%
viability, T/C [40]: 14.2%
viability, T/C [41]: 12.3%
viability, T/C [42]: 84.7%

CCCS(=O)(=O)Nc1ccc(F)c(C(=O)c2c[nH]c3ncc(-c4ccc(Cl)cc4)cc23)c1F + CC(Nc1ccc2c(c1)OCCn1cc(N3C(=O)OCC3C(F)F)nc1-2)C(N)=O
IC50 [1]: 2.23 µM
IC50 [2]: 1.68 µM
IC50 [3]: 3.74 µM
IC50 [4]: < 0.0316 µM
IC50 [5]: < 0.0316 µM
IC50 [6]: < 0.0316 µM
viability, T/C [7]: 67%
viability, T/C [8]: 57.9%
viability, T/C [9]: 61.3%
viability, T/C [10]: 51.6%
viability, T/C [11]: 49.6%
viability, T/C [12]: 3.89%
viability, T/C [13]: 95.3%
viability, T/C [14]: 56.5%
viability, T/C [15]: 67.8%
viability, T/C [16]: 56%
viability, T/C [17]: 49.7%
viability, T/C [18]: 4.85%
viability, T/C [19]: 69.3%
viability, T/C [20]: 52.4%
viability, T/C [21]: 69.7%
viability, T/C [22]: 32.1%
viability, T/C [23]: 65.4%
viability, T/C [24]: 4.59%
viability, T/C [25]: 38.9%
viability, T/C [26]: 53%
viability, T/C [27]: 47.8%
viability, T/C [28]: 45.9%
viability, T/C [29]: 38.5%
viability, T/C [30]: 5.88%
viability, T/C [31]: 43.5%
viability, T/C [32]: 57.1%
viability, T/C [33]: 55%
viability, T/C [34]: 43.1%
viability, T/C [35]: 47.3%
viability, T/C [36]: 6.23%
viability, T/C [37]: 55.9%
viability, T/C [38]: 44%
viability, T/C [39]: 46.9%
viability, T/C [40]: 34%
viability, T/C [41]: 50.1%
viability, T/C [42]: 6.69%
